Experiment: xn = mol fraction of the nth substance listed
Conditions: 298.15 K, 101 kPa

CCCCCC[n+]1ccn(C)c1.F[B-](F)(F)F + CC(C)(C)O
viscosity (x2 = 0): 171.8 mPa·s | viscosity (x2 = 0.1): 131.4 mPa·s | viscosity (x2 = 0.1449): 115.6 mPa·s | viscosity (x2 = 0.4008): 49.8 mPa·s | viscosity (x2 = 0.4992): 34.1 mPa·s | viscosity (x2 = 0.6009): 23.3 mPa·s | viscosity (x2 = 0.7007): 18 mPa·s | viscosity (x2 = 0.8983): 11 mPa·s

CC(C)(C)O + CCCCCC[n+]1ccn(C)c1.F[B-](F)(F)F
viscosity (x1 = 1): 4.444 mPa·s

CCCN + CCCCCC[n+]1ccn(C)c1.F[B-](F)(F)F
viscosity (x1 = 0.1949): 97.3 mPa·s | viscosity (x1 = 0.2959): 69.2 mPa·s | viscosity (x1 = 0.3803): 50.3 mPa·s | viscosity (x1 = 0.5991): 17.7 mPa·s | viscosity (x1 = 0.7005): 10.1 mPa·s | viscosity (x1 = 0.8066): 4.466 mPa·s | viscosity (x1 = 1): 0.358 mPa·s

From a compilation of properties of binary mixtures (doi:10.1016/j.molliq.2013.09.012)
